Consider one compound from US8975280B2, “Deoxynojirimycin and D-arabinitol analogs and methods of using” (The Chancellor, Masters and Scholars of The University of …, priority 2006, dated 2015).

Like-named read-outs stand apart in the source and are kept apart here.

Assay [1] concerns the target T1, α-glucosidase II (Rattus norvegicus, UniProt A0A8I6GFL3).
T1 construct: Purified α-glucosidase I and II were purified from rat liver by known methods; from tissue; host or cells: rat liver
Nature of the assay: In vitro inhibition of purified α-glucosidase II, (a) and (b) activities, 2-AA-labeled FOS substrates, HPLC. Type of assay: biochemical. On the procedure: All chromatography was performed at 30° C. The first solvent, solvent A, was acetonitrile and the second solvent, solvent B, was Milli-Q water. […] Samples (<50 μl) were injected in Milli-Q water/acetonitrile (3/7, v/v). All chromatography was controlled, including data collection and processing, using Waters Empower software. Glucose units were determined, following comparison with a 2-AA-labeled glucose oligomer ladder (derived from a partial hydrolysate of dextran) external standard using Peak Time software (developed in-house).
Purified α-glucosidase I and II were purified from rat liver by known methods. […] 2-AA-labeled FOS were isolated and purified as substrates for either α-glucosidase I or II. […] […] […] […] The reactions were stopped by the addition of 30 μl acetonitrile.

The target in assay [2] is T2, glucosidase I (Homo sapiens, UniProt Q13724).
T2 construct: endogenous in cells; host or cells: HL60 cells
T2 sequence (Q13724 1-837): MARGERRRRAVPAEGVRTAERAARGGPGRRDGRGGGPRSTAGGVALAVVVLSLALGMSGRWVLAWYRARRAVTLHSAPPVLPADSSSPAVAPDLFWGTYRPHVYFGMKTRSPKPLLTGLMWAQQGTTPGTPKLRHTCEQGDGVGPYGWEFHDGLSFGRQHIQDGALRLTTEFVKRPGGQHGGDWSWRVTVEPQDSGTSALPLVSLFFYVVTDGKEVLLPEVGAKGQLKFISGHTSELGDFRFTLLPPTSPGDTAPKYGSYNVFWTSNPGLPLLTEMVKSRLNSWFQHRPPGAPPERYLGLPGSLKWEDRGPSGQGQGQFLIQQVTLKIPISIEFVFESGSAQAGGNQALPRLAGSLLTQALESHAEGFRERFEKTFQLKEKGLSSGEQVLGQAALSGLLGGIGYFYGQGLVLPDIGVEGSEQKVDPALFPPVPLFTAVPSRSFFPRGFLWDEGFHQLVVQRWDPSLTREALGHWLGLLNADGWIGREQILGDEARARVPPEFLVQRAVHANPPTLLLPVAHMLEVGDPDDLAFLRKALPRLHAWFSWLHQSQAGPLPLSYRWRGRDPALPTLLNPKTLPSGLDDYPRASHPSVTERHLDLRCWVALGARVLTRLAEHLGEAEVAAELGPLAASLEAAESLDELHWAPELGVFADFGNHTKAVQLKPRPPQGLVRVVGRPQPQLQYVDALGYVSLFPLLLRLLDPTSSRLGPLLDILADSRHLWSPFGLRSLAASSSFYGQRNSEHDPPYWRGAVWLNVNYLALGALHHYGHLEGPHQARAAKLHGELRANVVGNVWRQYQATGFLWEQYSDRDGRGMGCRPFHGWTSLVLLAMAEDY
Nature of the assay: Inhibition of glucosidase I in HL60 cells, free oligosaccharide (G3M5N) analysis by NP-HPLC. Type of assay: cell-based. More on the design: concentration of maximal glucosidase I inhibition in cells: unit not given here. Conditions: 24 h. Here is the method: The effect of an ER-glucosidase inhibitor on cells was evaluated using an assay method by modifying known methods. (H. R. Mellor et al., Cellular Effects of Deoxynojirimycin Analogues: Inhibition of N-Linked Oligosaccharide Processing and Generation of Free Glucosylated Oligosaccharides, 381 Biochem. J. 867-875 (2004). The detection of free oligosaccharides following imino sugar treatment to generate misfolded protein that is degraded in the cytosol is an accurate measure of cell ER entry and inhibition of glycoprotein processing of α-glucosidases I and II by imino sugars.
Cells were cultured to high density (×10^7 cells/ml) prior to growth in fresh medium containing NB-DNJ at varying concentrations. The cells were seeded at a lower density so as to achieve a high density at the end of the incubation period. […] The conditions for extraction of FOS were determined to maximize recovery of FOS. […]
ConA-Sepharose purified 2-AA-labeled oligosaccharides were separated by NP-HPLC using a 4.6×250 mm TSKgel Amide-80 column (Anachem, Luton, UK) with slight modifications to known methods. (D. C. Neville, et al.) The chromatography system consisted of a Waters Alliance 2695 separations module and an in-line Waters 474 fluorescence detector set at an excitation wavelength of 360 nm and emission wavelength of 425 nm. […]

T1 sequence (A0A8I6ADW9 1-525 partner): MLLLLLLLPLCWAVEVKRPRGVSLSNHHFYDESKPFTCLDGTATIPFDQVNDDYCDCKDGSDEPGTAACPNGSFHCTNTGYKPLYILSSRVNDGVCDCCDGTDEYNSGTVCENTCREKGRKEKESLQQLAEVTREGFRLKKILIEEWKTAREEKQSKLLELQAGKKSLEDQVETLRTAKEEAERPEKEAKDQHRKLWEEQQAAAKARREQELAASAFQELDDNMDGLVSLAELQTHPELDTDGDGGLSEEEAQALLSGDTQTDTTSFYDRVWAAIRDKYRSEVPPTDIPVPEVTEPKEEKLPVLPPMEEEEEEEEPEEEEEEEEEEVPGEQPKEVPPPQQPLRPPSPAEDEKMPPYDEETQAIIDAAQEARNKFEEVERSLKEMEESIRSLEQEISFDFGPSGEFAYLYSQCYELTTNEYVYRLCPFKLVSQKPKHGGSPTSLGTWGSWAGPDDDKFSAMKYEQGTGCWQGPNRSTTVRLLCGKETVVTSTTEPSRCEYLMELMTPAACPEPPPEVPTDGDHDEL

Usually IC50 stands for the point on the concentration scale where inhibition reaches its midpoint. In the case of `[N-]=[N+]=Nc1ccc(NCCCCCCN2C[C@H](O)[C@@H](O)[C@H](O)[C@H]2CO)c([N+](=O)[O-])c1` [NAP-DNJ, N—(N′-{4′azido-2′-nitrophenyl)-6-aminohexyl)-deoxynojirimycin], the IC50 turned out to be 19.2 ± 0.06 µM in assay [1] (heptamannose substrate Glc1Man7GlcNAc1, read-out: α-Glucosidase II (b) Glc1Man7GlcNAc1 IC50); 11.7 ± 0.7 µM in assay [1] (heptamannose substrate Glc2Man7GlcNAc1, read-out: α-Glucosidase II (a) Glc2Man7GlcNAc1 IC50); 0.833 ± 0.18 µM in assay [1] (pentamannose substrate Glc1Man5GlcNAc1, read-out: α-Glucosidase II (b) Glc1Man5GlcNAc1 IC50); 0.3 ± 0.1 µM in assay [1] (pentamannose substrate Glc2Man5GlcNAc1, read-out: α-Glucosidase II (a) Glc2Man5GlcNAc1 IC50). Further, the “concentration of maximal glucosidase I inhibition in cells” value in assay [2] (G3M5N) is on record as 50-100 ρM. In addition, the “more potent at inhibiting glucosidase I than NB-DNJ in cells” value in assay [2] (estimation of G3M5N) is given as 20-50 times.
